Assay results: ChEMBL document CHEMBL2073997, “Effect of multidrug resistance-reversing agents on transporting activity of human canalicular multispecific organic anion transporter” (Mol Pharmacol, 1999)

Key:
[1] = biological target: T1, ATP-binding cassette sub-family C member 2 (Homo sapiens, UniProt Q92887); assay: (§1) TP_TRANSPORTER: uptake in membrane vesicles from MRP2-expressing LLC PK1 cells; type: functional, cell membranes, Membrane vesicle; conditions: pig
[2] = biological target: T1, ATP-binding cassette sub-family C member 2; assay: TP_TRANSPORTER: inhibition of LTC4 uptake in membrane vesicles from MRP2-expressing LLC PK1 cells; type: functional, cell membranes, Membrane vesicle
[3] = biological target: T1, ATP-binding cassette sub-family C member 2; assay: TP_TRANSPORTER: increase in Vincristine intracellular accumulation (Vincristine: 1 uM, PSC-833: 10 uM) in MRP2-expressing LLC PK1 cells; type: functional, cell-based; conditions: pig, llc-pk1, 10 µM
[4] = biological target: T1, ATP-binding cassette sub-family C member 2; assay: TP_TRANSPORTER: increase in Vincristine intracellular accumulation (Vincristine: 1 uM, MK571: 10 uM) in MRP2-expressing LLC PK1 cells; type: functional, cell-based; conditions: pig, llc-pk1, 10 µM
[5] = biological target: T1, ATP-binding cassette sub-family C member 2; assay: TP_TRANSPORTER: increase in Vincristine intracellular accumulation (Vincristine: 1 uM, PAK-104P: 10 uM) in MRP2-expressing LLC PK1 cells; type: functional, cell-based; conditions: pig, llc-pk1, 10 µM
[6] = biological target: T1, ATP-binding cassette sub-family C member 2; assay: TP_TRANSPORTER: intracellular accumulation in MRP2-expressing LLC PK1 cells; type: functional, cell-based; conditions: pig
[7] = substrate: CCCCC/C=C\C\C=C/C=C/C=C/[C@@H](SC[C@@H](NC(=O)CC[C@H](N)C(=O)O)C(=O)NCC(=O)O)[C@@H](O)CCCC(=O)O; assay: as §1; type: functional, cell membranes, Membrane vesicle

With `N[C@@H](CCC(=O)N[C@H](CSc1ccc([N+](=O)[O-])cc1[N+](=O)[O-])C(=O)NCC(=O)O)C(=O)O` the Activity [1] was “substrate [+]”.

For `C/C=C/C[C@@H](C)C(=O)[C@H]1C(=O)N[C@@H](C(C)C)C(=O)N(C)CC(=O)N(C)[C@@H](CC(C)C)C(=O)N[C@@H](C(C)C)C(=O)N(C)[C@@H](CC(C)C)C(=O)N[C@@H](C)C(=O)N[C@H](C)C(=O)N(C)[C@@H](CC(C)C)C(=O)N(C)[C@@H](CC(C)C)C(=O)N(C)[C@@H](C(C)C)C(=O)N1C` [VALSPODAR], the Ki [2] was 28.9 µM and the Activity [3] was “inhibitor [+]”.

In the case of `CN(C)C(=O)CCSC(SCCC(=O)O)c1cccc(/C=C/c2ccc3ccc(Cl)cc3n2)c1` (centres undefined) [MK-571], the Activity [4] is reported as “inhibitor [+]” and the Ki [2] is reported as 13.1 µM.

`Cc1nc(C)c(P2(=O)O[C@H](C)C[C@@H](C)O2)c(-c2cccc([N+](=O)[O-])c2)c1C(=O)OCCN1CCN(C(c2ccccc2)c2ccccc2)CC1` (some centres undefined) was tested, and the Ki [2] was 3.7 µM and the Activity [5] was “inhibitor [+]”.

`CC[C@]1(O)C[C@H]2CN(CCc3c([nH]c4ccccc34)[C@@](C(=O)OC)(c3cc4c(cc3OC)N(C=O)[C@H]3[C@@](O)(C(=O)OC)[C@H](OC(C)=O)[C@]5(CC)C=CCN6CC[C@]43[C@@H]65)C2)C1` [VINCRISTINE] was tested, and the Activity [6] was “substrate [+]”.

B1: ATP-binding cassette sub-family C member 2 (Homo sapiens) (protein)
chain: MLEKFCNSTFWNSSFLDSPEADLPLCFEQTVLVWIPLGYLWLLAPWQLLHVYKSRTKRSSTTKLYLAKQVFVGFLLILAAIELALVLTEDSGQATVPAVRYTNPSLYLGTWLLVLLIQYSRQWCVQKNSWFLSLFWILSILCGTFQFQTLIRTLLQGDNSNLAYSCLFFISYGFQILILIFSAFSENNESSNNPSSIASFLSSITYSWYDSIILKGYKRPLTLEDVWEVDEEMKTKTLVSKFETHMKRELQKARRALQRRQEKSSQQNSGARLPGLNKNQSQSQDALVLEDVEKKKKKSGTKKDVPKSWLMKALFKTFYMVLLKSFLLKLVNDIFTFVSPQLLKLLISFASDRDTYLWIGYLCAILLFTAALIQSFCLQCYFQLCFKLGVKVRTAIMASVYKKALTLSNLARKEYTVGETVNLMSVDAQKLMDVTNFMHMLWSSVLQIVLSIFFLWRELGPSVLAGVGVMVLVIPINAILSTKSKTIQVKNMKNKDKRLKIMNEILSGIKILKYFAWEPSFRDQVQNLRKKELKNLLAFSQLQCVVIFVFQLTPVLVSVVTFSVYVLVDSNNILDAQKAFTSITLFNILRFPLSMLPMMISSMLQASVSTERLEKYLGGDDLDTSAIRHDCNFDKAMQFSEASFTWEHDSEATVRDVNLDIMAGQLVAVIGPVGSGKSSLISAMLGEMENVHGHITIKGTTAYVPQQSWIQNGTIKDNILFGTEFNEKRYQQVLEACALLPDLEMLPGGDLAEIGEKGINLSGGQKQRISLARATYQNLDIYLLDDPLSAVDAHVGKHIFNKVLGPNGLLKGKTRLLVTHSMHFLPQVDEIVVLGNGTIVEKGSYSALLAKKGEFAKNLKTFLRHTGPEEEATVHDGSEEEDDDYGLISSVEEIPEDAASITMRRENSFRRTLSRSSRSNGRHLKSLRNSLKTRNVNSLKEDEELVKGQKLIKKEFIETGKVKFSIYLEYLQAIGLFSIFFIILAFVMNSVAFIGSNLWLSAWTSDSKIFNSTDYPASQRDMRVGVYGALGLAQGIFVFIAHFWSAFGFVHASNILHKQLLNNILRAPMRFFDTTPTGRIVNRFAGDISTVDDTLPQSLRSWITCFLGIISTLVMICMATPVFTIIVIPLGIIYVSVQMFYVSTSRQLRRLDSVTRSPIYSHFSETVSGLPVIRAFEHQQRFLKHNEVRIDTNQKCVFSWITSNRWLAIRLELVGNLTVFFSALMMVIYRDTLSGDTVGFVLSNALNITQTLNWLVRMTSEIETNIVAVERITEYTKVENEAPWVTDKRPPPDWPSKGKIQFNNYQVRYRPELDLVLRGITCDIGSMEKIGVVGRTGAGKSSLTNCLFRILEAAGGQIIIDGVDIASIGLHDLREKLTIIPQDPILFSGSLRMNLDPFNNYSDEEIWKALELAHLKSFVASLQLGLSHEVTEAGGNLSIGQRQLLCLGRALLRKSKILVLDEATAAVDLETDNLIQTTIQNEFAHCTVITIAHRLHTIMDSDKVMVLDNGKIIECGSPEELLQIPGPFYFMAKEAGIENVNSTKF
For B1, the Km [7] was 0.26 µM.
